According to patent publication US20230135894A1, “MK2 DEGRADERS AND USES THEREOF” (Kymera Therapeutics, Inc., priority 2021, published 2023):

Tests used:
MK2 [1] = target: T1, MK2 (Homo sapiens, UniProt P49137); assay: MK2 degradation in human THP-1 monocytic cells (MSD, 24 h); assay type: cell-based; set-up: endogenous in cells; key to MK2 MSD THP-1 degradation 24 h GMean External Abs DC50: A (<0.001 μM); B (0.001-0.01 μM); C (0.01-0.1 μM); D (>0.1 μM); —: “-”=not tested or inactive; settings: for Dmax: THP-1, THP-1 cells; for DC50: read-out: MK2 MSD THP-1 degradation 24 h GMean External Abs DC50
Summary of the method: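 THP-1 cells (200,000/well) treated 24 h at 37 °C with compound dilution series (up to 10 points, 0.1% DMSO). MK2 in RIPA lysates quantified by MSD sandwich immunoassay. DC50 from 4-parameter logistic fit, DMSO-treated cells as high and lysis buffer as low signal.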

MK2 [2] = target: T1, MK2; assay: MK2 degradation in human SW1353 cells (MSD, 24 h); assay type: cell-based; set-up: endogenous in cells; host or cells: SW-1353 (ATCC HTB-94); key to MK2 MSD SW1353 degradation 24 h GMean External Abs DC50: A (<0.001 μM); B (0.001-0.01 μM); C (0.01-0.1 μM); D (>0.1 μM); —: “-”=not tested or inactive; key to MK2 MSD SW 1353 24 h Dmax %: —: “-”=not tested or inactive; settings: for Dmax: read-out: MK2 MSD SW 1353 24 h Dmax %; for DC50: read-out: MK2 MSD SW1353 degradation 24 h GMean External Abs DC50
Summary of the method: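 SW1353 chondrosarcoma cells were treated with up to 10-point serial dilutions (0.1% DMSO) for 24 h at 37 °C, then lysed in RIPA buffer. MK2 levels were quantified by MSD sandwich immunoassay; DC50 came from a 4-parameter logistic fit normalised to DMSO-treated cells (high) and lysis buffer (low).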

T1 sequence (P49137 whole entry): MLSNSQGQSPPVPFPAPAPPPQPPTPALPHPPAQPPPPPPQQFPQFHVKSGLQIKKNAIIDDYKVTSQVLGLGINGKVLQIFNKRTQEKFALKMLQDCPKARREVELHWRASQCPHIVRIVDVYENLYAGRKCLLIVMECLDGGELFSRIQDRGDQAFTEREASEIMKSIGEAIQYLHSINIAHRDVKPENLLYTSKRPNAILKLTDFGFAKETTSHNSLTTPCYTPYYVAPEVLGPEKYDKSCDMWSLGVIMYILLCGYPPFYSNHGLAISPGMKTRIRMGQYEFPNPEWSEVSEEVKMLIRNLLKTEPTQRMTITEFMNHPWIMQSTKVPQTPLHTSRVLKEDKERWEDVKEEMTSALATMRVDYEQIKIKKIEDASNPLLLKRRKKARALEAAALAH

SMILES	Dmax (MK2 [1]) [%]	DC50 (MK2 [1]; THP-1 cells) [nM]	Dmax (MK2 [2]) [%]	DC50 (MK2 [2]) [nM]	MK2 MSD THP-1 degradation 24 h GMean External Abs DC50 (MK2 [1]; THP-1 cells)	MK2 MSD SW1353 degradation 24 h GMean External Abs DC50 (MK2 [2])	MK2 MSD SW 1353 24 h Dmax % (MK2 [2])
C[C@@H]1CNc2c(sc3ccc4nc(-c5cc(C#N)cc(N6CCN(CC7CCN(c8ccc9c(c8)n(C)c(=O)n9C8CCC(=O)NC8=O)CC7)CC6)c5)ccc4c23)C(=O)N1 (stereo partly drawn) [Compound I-240]	> 75	< 1	> 75	< 1			
C[C@@H]1CNc2c(sc3ccc4nc(-c5ccc(N6CCC(CCN7CCN(c8cccc9c8n(C)c(=O)n9C8CCC(=O)NC8=O)CC7)CC6)cc5)ccc4c23)C(=O)N1 (stereo partly drawn) [Compound I-128]	> 75	1 to 10	> 75	1 to 10			
Cn1c(=O)n(C2CCC(=O)NC2=O)c2ccc(N3CCC(CN4CCN(c5ccc(-c6cc(-c7cc8c([nH]7)CCNC8=O)ccn6)cc5)CC4)CC3)cc21 (stereo not drawn) [Compound I-143]	> 75	< 1	> 75	< 1			
C[C@@H]1CNc2c(sc3ccc4nc(N5C6CCC5CN(CC5CCN(c7cccc8c7n(C)c(=O)n8C7CCC(=O)NC7=O)CC5)C6)ccc4c23)C(=O)N1 (stereo partly drawn) [Compound I-435]	< 50	> 100		> 100			—
Cn1c(=O)n(C2CCC(=O)NC2=O)c2ccc(N3CCC(CN4CCN(c5cc(-c6ccccc6)cc(-c6cc(-c7cc8c([nH]7)CCNC8=O)ccn6)c5)CC4)CC3)cc21 (stereo not drawn) [Compound I-224]	< 50	> 100	< 50	> 100			
Cc1cc(-c2ccc3c(ccc4sc5c(c43)NC[C@@H](C)NC5=O)n2)cnc1N1CCN(CCCc2ccc3c(c2)n(C)c(=O)n3C2CCC(=O)NC2=O)CC1 (stereo partly drawn) [Compound I-258]	< 50	1 to 10	50 to 75	1 to 10			
C[C@@H]1CNc2c(sc3ccc4nc(-c5cccc(C6CCN(CCN7CCC(CCc8cccc9c8n(C)c(=O)n9C8CCC(=O)NC8=O)CC7)CC6)c5)ccc4c23)C(=O)N1 (stereo partly drawn) [Compound I-104]	> 75	1 to 10	> 75	10 to 100			
C[C@@H]1CNc2c(sc3ccc4nc(-c5ccc(N6CCN(CCCCOc7ccc(C8CCC(=O)NC8=O)cc7)CC6)nc5)ccc4c23)C(=O)N1 (stereo partly drawn) [Compound I-183]	> 75		> 75		—	—	

Second part, led by results:

Dmax (MK2 [1]) [%]	DC50 (MK2 [1]; THP-1 cells) [nM]	Dmax (MK2 [2]) [%]	DC50 (MK2 [2]) [nM]	MK2 MSD THP-1 degradation 24 h GMean External Abs DC50 (MK2 [1]; THP-1 cells)	MK2 MSD SW1353 degradation 24 h GMean External Abs DC50 (MK2 [2])	SMILES	MK2 MSD SW 1353 24 h Dmax % (MK2 [2])
> 75	< 1	> 75	1 to 10			C[C@@H]1CNc2c(sc3ccc4nc(-c5ccc(N6CCC(CN7CCN(c8cccc9c(N%10CCC(=O)NC%10=O)cncc89)CC7)CC6)cc5)ccc4c23)C(=O)N1 [Compound I-317]	
< 50	> 100	< 50	> 100			C[C@@H]1CNc2c(sc3ccc4nc(N5CCCN(CC6CCN(c7cccc8c7n(C)c(=O)n8C7CCC(=O)NC7=O)CC6)CC5)ccc4c23)C(=O)N1 (stereo partly drawn) [Compound I-442]	
> 75	< 1	> 75	< 1			Cn1c(=O)n(C2CCC(=O)NC2=O)c2ccc(N3CCC(CN4CCN(c5ccc(-c6nccc(-c7cc8c([nH]7)CCNC8=O)n6)cc5)CC4)CC3)cc21 (stereo not drawn) [Compound I-427]	
> 75	1 to 10	> 75	1 to 10			C[C@@H]1CNc2c(sc3ccc4nc(-c5ccc(N6CCC(CN7CCN(c8cccc9c8n(C)c(=O)n9C8CCC(=O)NC8=O)CC7)CC6)cc5)ccc4c23)C(=O)N1 (stereo partly drawn) [Compound I-315]	
> 75	< 1	> 75	< 1			C[C@@H]1CNc2c(sc3ccc4nc(-c5ccc(N6CC7(CCN(c8ccc9c(c8)n(C)c(=O)n9C8CCC(=O)NC8=O)CC7)C6)nc5)ccc4c23)C(=O)N1 (stereo partly drawn) [Compound I-409, 3-(3-methyl-5-(2-(5-((R)-10-methyl-8-oxo-9,10,11,12-tetrahydro-8H-[1,4]diazepino[5′,6′:4,5]thieno[3,2-f]quinolin-3-yl)pyridin-2-yl)-2,7-diazaspiro[3.5]nonan-7-yl)-2-oxo-2,3-dihydro-1H-benzo[d]imidazol-1-yl)piperidine-2,6-dione]	
< 50	> 100	< 50	> 100			Cn1c(=O)n(C2CCC(=O)NC2=O)c2ccc(N3CCC(CN4CCN(c5ccc(-c6cc(-c7cc8c(s7)CCNC8=O)ccn6)cc5)CC4)CC3)cc21 (stereo not drawn) [Compound I-406]	
> 75	< 1	> 75	< 1			Cn1c(=O)n(C2CCC(=O)NC2=O)c2ccc(N3CC(CN4CCN(c5ccc(-c6cc(-c7cc8c([nH]7)C7(CCCC7)CNC8=O)ccn6)cc5)CC4)C3)cc21 (stereo not drawn) [Compound I-415]	
